{
  "source": "patent US20040192772A1",
  "about": "“Agent for treating the symptoms of dementia disorders and/or depression” (priority 2001, published 2004)",
  "test_system": "patients suffering from dementia disorders and depression",
  "test": "therapy of patients suffering from dementia disorders and depression",
  "assay_type": "in vivo, human",
  "settings": "compared with the other local anaesthetics of the anilide group (lidocaine, bupivacaine, butanilicaine, etidocaine, tholycaine, ropivacaine)",
  "data": [
    {"smiles": "Cc1cccc(C)c1NC(=O)C1CCCCN1C", "note": "(stereo not shown) [Mepivacaine, mepivacaine]", "values": [
      {"measurement": "effectiveness for the therapy of patients suffering from dementia disorders and depression", "value": "most effective"}
    ]}
  ]
}
